Target: 15-PGDH/HPGD (Homo sapiens (Human), UniProt P15428)
Assay: hPGDH inhibitor screening biochemical assay
Details: read-out: hPGDH: Average IC50
Experimental: A hydroxyprostaglandin dehydrogenase inhibition screening biochemical assay can be performed to assess the synthesized inhibitors provided herein. Provided herein is an exemplary biochemical assay for hPGDH inhibitor screening.
The in vitro biochemical assay can be performed in white, 384 plates in total 20 μl reaction volume consisting of 10 nM of 15-PGDH/HPGD (R&D System #5660-DH), 15 μM Prostaglandin E2 (Sigma, Cat #P5640-10MG) and 0.25 mM (3-Nicotinamide adenine dinucleotide sodium salt (Sigma, Cat #N0632-5G) made in reaction buffer (50 mM Tris-HCl, pH 7.5, 0.01% Tween 20) at 10-point dose response curve for test/tool compounds. Briefly, 5 μl (4×) of compounds solution and 5 μl (final concentration, 10 nM) of enzyme solution is added to white 384 well plates and incubated for 10 mins at 37° C. 5 μl (4×) of Prostaglandin E2 and 5 μl (4×) of β-Nicotinamide adenine dinucleotide sodium salt is added to the wells and incubated for 10 mins at room temperature. Fluorescence is recorded at ex/em=340 nm/485 nm. The percentage (%) inhibition of enzyme activity was determined relative to positive control (1% DMSO) and IC50 was calculated using GraphPad prism software (four parameter-variable slope equation).

15-PGDH/HPGD, sequence (P15428 whole entry): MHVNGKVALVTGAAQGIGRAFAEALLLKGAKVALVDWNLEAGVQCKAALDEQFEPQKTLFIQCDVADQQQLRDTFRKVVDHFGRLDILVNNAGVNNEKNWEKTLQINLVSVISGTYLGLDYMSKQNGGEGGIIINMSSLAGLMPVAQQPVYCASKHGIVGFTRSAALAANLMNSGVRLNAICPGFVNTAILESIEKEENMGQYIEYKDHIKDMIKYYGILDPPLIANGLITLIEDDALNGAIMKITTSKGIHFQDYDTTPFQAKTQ

For N#Cc1ccc(-n2c(CCC(N)=O)cc3cc(C(=O)N4CCC(F)(F)CC4)cnc32)cc1 [MF-DH-446, 3-(1-(4-cyanophenyl)-5-(4,4-difluoropiperidine-1-carbonyl)-1H-pyrrolo[2,3-b]pyridin-2-yl)propanamide], which IC50 is on record?
The IC50 was 100 to 1000 nM.

With N#Cc1ccc(-n2ccc3cc(C(=S)N4CCC(F)(F)CC4)cnc32)cc1 [MF-DH-449, 4-(5-(4,4-difluoropiperidine-1-carbonothioyl)-1H-pyrrolo[2,3-b]pyridin-1-yl)benzonitrile] as the molecule, how does the IC50 read?
The IC50 was ≥ 1000 nM.

How did the IC50 turn out when NC(=O)[C@@H]1CCCN1C(=O)c1ccc(-n2ccc3cc(C(=O)N4CCC(F)(F)CC4)cnc32)cc1 [MF-DH-450, (S)-1-(4-(5-(4,4-difluoropiperidine-1-carbonyl)-1H-pyrrolo[2,3-b]pyridin-1-yl)benzoyl)pyrrolidine-2-carboxamide] was run?
The IC50 was < 100 nM.

Which IC50 does the source give for O=C(c1ccc(-n2ccc3cc(C(=O)N4CCC(F)(F)CC4)cnc32)cc1)N(CCO)CCO [MF-DH-451] here?
The IC50 was < 100 nM.

With O=C(c1cnc2c(ccn2-c2ccc(-c3noc(=O)[nH]3)nc2)c1)N1CCC(F)(F)CC1 [MF-DH-456, 3-(5-(5-(4,4-difluoropiperidine-1-carbonyl)-1H-pyrrolo[2,3-b]pyridin-1-yl)pyridin-2-yl)-1,2,4-oxadiazol-5(4H)-one] as the molecule, how does the IC50 read?
Its IC50 is < 100 nM.

N#Cc1ccc(-n2ccc3nc(C(=O)N4CCC(F)CC4)ccc32)cc1 [MF-DH-462, 4-(5-(4-fluoropiperidine-1-carbonyl)-1H-pyrrolo[3,2-b]pyridin-1-yl)benzonitrile] was tested. Which IC50 did it give?
The IC50 was ≥ 1000 nM.

N#Cc1ccc(-n2ccc3cc(C(=O)N4CCC(F)CC4)ncc32)cc1 [MF-DH-463, 4-(5-(4-fluoropiperidine-1-carbonyl)-1H-pyrrolo[2,3-c]pyridin-1-yl)benzonitrile] was tested. Which IC50 did it give?
The IC50 was ≥ 1000 nM.

How did the IC50 turn out when CC(C)(C#Cc1ccc(-n2ccc3cc(C(=O)N4CCC(F)(F)CC4)cnc32)cn1)S(C)(=O)=O [MF-DH-465, (4,4-difluoropiperidin-1-yl)(1-(6-(3-methyl-3-(methylsulfonyl)but-1-yn-1-yl)pyridin-3-yl)-1H-pyrrolo[2,3-b]pyridin-5-yl)methanone] was run?
Its IC50 is 100 to 1000 nM.

How did the IC50 turn out when O=C(NCCO)c1cccc(-n2ccc3cc(C(=O)N4CCC(F)(F)CC4)cnc32)c1 [MF-DH-468, 3-(5-(4,4-difluoropiperidine-1-carbonyl)-1H-pyrrolo[2,3-b]pyridin-1-yl)-N-(2-hydroxyethyl)benzamide] was run?
The IC50 was < 100 nM.

With O=C(O)c1ccc(-n2ccc3cc(C(=O)N4CCC(F)(F)CC4)cnc32)nc1 [MF-DH-469] as the molecule, how does the IC50 read?
The IC50 was < 100 nM.

How did the IC50 turn out when CC(C)(O)C#Cc1nc2cc(C(=O)N3CCC(F)(F)CC3)cnc2n1-c1ccc(C#N)cc1 [MF-DH-476, 4-(6-(4,4-difluoropiperidine-1-carbonyl)-2-(3-hydroxy-3-methylbut-1-yn-1-yl)-3H-imidazo[4,5-b]pyridin-3-yl)benzonitrile] was run?
The IC50 was 100 to 1000 nM.

Which IC50 does the source give for CCNC(=O)c1ccc(-n2ccc3cc(C(=O)N4CCC(F)(F)CC4)cnc32)nc1 [MF-DH-477, 6-(5-(4,4-difluoropiperidine-1-carbonyl)-1H-pyrrolo[2,3-b]pyridin-1-yl)-N-ethylnicotinamide] here?
Its IC50 is < 100 nM.

For NC[C@@H]1CN(c2ccc(-n3ccc4cc(C(=O)N5CCC(F)(F)CC5)cnc43)cn2)C(=O)O1 [MF-DH-478], which IC50 is on record?
The IC50 was < 100 nM.

How did the IC50 turn out when NC[C@@H]1CN(c2cncc(-n3ccc4cc(C(=O)N5CCC(F)(F)CC5)cnc43)c2)C(=O)O1 [MF-DH-479] was run?
The IC50 was < 100 nM.

CS(=O)(=O)NCCNC(=O)c1cccc(-n2ccc3cc(C(=O)N4CCC(F)(F)CC4)cnc32)c1 [MF-DH-480, 3-(5-(4,4-difluoropiperidine-1-carbonyl)-1H-pyrrolo[2,3-b]pyridin-1-yl)-N-(2-(methylsulfonamido)ethyl)benzamide] was tested. Which IC50 did it give?
Its IC50 is < 100 nM.

How did the IC50 turn out when O=C(c1cnc2c(ccn2-c2cncc(NS(=O)(=O)C3CC3)c2)c1)N1CCC(F)(F)CC1 [MF-DH-484, N-(5-(5-(4,4-difluoropiperidine-1-carbonyl)-1H-pyrrolo[2,3-b]pyridin-1-yl)pyridin-3-yl)cyclopropanesulfonamide] was run?
Its IC50 is < 100 nM.

With NC(=O)[C@@H]1CCCN1C(=O)c1cccc(-n2ccc3cc(C(=O)N4CCC(F)(F)CC4)cnc32)c1 [MF-DH-486, (S)-1-(3-(5-(4,4-difluoropiperidine-1-carbonyl)-1H-pyrrolo[2,3-b]pyridin-1-yl)benzoyl)pyrrolidine-2-carboxamide] as the molecule, how does the IC50 read?
Its IC50 is < 100 nM.

With CC(C)(C(N)=O)c1cncc(-n2ccc3cc(C(=O)N4CCC(F)(F)CC4)cnc32)c1 [MF-DH-487, 2-(5-(5-(4,4-difluoropiperidine-1-carbonyl)-1H-pyrrolo[2,3-b]pyridin-1-yl)pyridin-3-yl)-2-methylpropanamide] as the molecule, how does the IC50 read?
Its IC50 is < 100 nM.

How did the IC50 turn out when O=C(O)[C@@H]1CCCN1C(=O)c1cccc(-n2ccc3cc(C(=O)N4CCC(F)(F)CC4)cnc32)c1 [MF-DH-489, (3-(5-(4,4-difluoropiperidine-1-carbonyl)-1H-pyrrolo[2,3-b]pyridin-1-yl)benzoyl)-L-proline] was run?
Its IC50 is 100 to 1000 nM.

How did the IC50 turn out when NS(=O)(=O)c1cccc(-n2ccc3cc(C(=O)N4CCC(F)(F)CC4)cnc32)c1 [MF-DH-495] was run?
The IC50 was < 100 nM.

Which IC50 does the source give for NS(=O)(=O)c1ccc(-n2ccc3cc(C(=O)N4CCC(F)(F)CC4)cnc32)cc1 [MF-DH-496] here?
The IC50 was < 100 nM.

How did the IC50 turn out when O=C(c1cnc2c(ccn2-c2cccc(C(=O)N3CCS(=O)(=O)C3)c2)c1)N1CCC(F)(F)CC1 [MF-DH-497, (4,4-difluoropiperidin-1-yl)(1-(3-(1,1-dioxidothiazolidine-3-carbonyl)phenyl)-1H-pyrrolo[2,3-b]pyridin-5-yl)methanone] was run?
Its IC50 is < 100 nM.

With O=C(Nc1cc(C2CC2)[nH]n1)c1cncc(-n2ccc3cc(C(=O)N4CCC(F)(F)CC4)cnc32)c1 [MF-DH-501, N-(5-cyclopropyl-1H-pyrazol-3-yl)-5-(5-(4,4-difluoropiperidine-1-carbonyl)-1H-pyrrolo[2,3-b]pyridin-1-yl)nicotinamide] as the molecule, how does the IC50 read?
Its IC50 is < 100 nM.

Which IC50 does the source give for N#Cc1cc(-n2ccc3cc(C(=O)N4CCC(F)(F)CC4)cnc32)cnc1O [MF-DH-502] here?
The IC50 was < 100 nM.

CC(C)(C#N)c1cncc(-n2ccc3cc(C(=O)N4CCC(F)(F)CC4)cnc32)c1 [MF-DH-509, 2-(5-(5-(4,4-difluoropiperidine-1-carbonyl)-1H-pyrrolo[2,3-b]pyridin-1-yl)pyridin-3-yl)-2-methylpropanenitrile] was tested. Which IC50 did it give?
Its IC50 is < 100 nM.

With O=C(c1cnc2c(ccn2-c2cccc(C(=O)N3CC[S+]([O-])C3)c2)c1)N1CCC(F)(F)CC1 (stereo not drawn) [MF-DH-527, (4,4-difluoropiperidin-1-yl)(1-(3-(1-oxidothiazolidine-3-carbonyl)phenyl)-1H-pyrrolo[2,3-b]pyridin-5-yl)methanone] as the molecule, how does the IC50 read?
Its IC50 is < 100 nM.

How did the IC50 turn out when CC(C)(O)CCC#Cc1nc2cc(C(=O)N3CCC(F)(F)CC3)cnc2n1-c1ccc(C#N)cc1 [MF-DH-544, 4-(6-(4,4-difluoropiperidine-1-carbonyl)-2-(5-hydroxy-5-methylhex-1-yn-1-yl)-3H-imidazo[4,5-b]pyridin-3-yl)benzonitrile] was run?
The IC50 was 100 to 1000 nM.

C[C@H]1CCCN(C(=O)c2cnc3c(ccn3-c3ccc(C(=O)O)cc3)c2)C1 [MF-DH-562, (S)-4-(5-(3-methylpiperidine-1-carbonyl)-1H-pyrrolo[2,3-b]pyridin-1-yl)benzoic acid] was tested. Which IC50 did it give?
The IC50 was < 100 nM.

How did the IC50 turn out when O=C(c1ccc2c(ccn2-c2cccc(Cl)c2)c1)N1CCCCC1 [MF-PGDH-004] was run?
Its IC50 is < 100 nM.

How did the IC50 turn out when O=C(c1ccc2c(c1)c(Cl)cn2-c1cccc(Cl)c1)N1CCCCC1 [MF-PGDH-005] was run?
Its IC50 is < 100 nM.

Reference: US11345702B1 (Myoforte Therapeutics, Inc., priority 2020, dated 2022)
